Experimental data from US10385031B2, “Substituted piperazines as selective HDAC1,2 inhibitors” (Regenacy Pharmaceuticals, LLC, priority 2016, dated 2019).

Biological target: HDAC2 (Homo sapiens (Human), UniProt Q92769)
Experiment: HDAC enzyme assay HDAC2
Format: biochemical
Details: not given
Method: Compounds for testing were diluted in DMSO to 50 fold the final concentration and a ten-point three-fold dilution series was made. The compounds were diluted in assay buffer (50 mM HEPES, pH 7.4, 100 mM KCl, 0.001% Tween-20, 0.05% BSA, 20 μM TCEP) to 6-fold their final concentration. The HDAC enzymes (purchased from BPS Biosciences) were diluted to 1.5-fold their final concentration in assay buffer. The tripeptide substrate and trypsin at 0.05 μM final concentration were diluted in assay buffer at 6-fold their final concentration. The final enzyme concentrations used in these assays were 3.3 ng/ml (HDAC1), 0.2 ng/ml (HDAC2) and 0.08 ng/ml (HDAC3). The final substrate concentrations used were 16 μM (HDAC1), 10 μM (HDAC2) and 17 μM (HDAC3).
Five μl of compounds and 20 μl of enzyme were added to wells of a black, opaque 384 well plate in duplicate. Enzyme and compound were incubated together at room temperature for 10 minutes. Five μl of substrate was added to each well, the plate was shaken for 60 seconds and placed into a Victor 2 microtiter plate reader. The development of fluorescence was monitored for 60 min and the linear rate of the reaction was calculated. The IC50 was determined using Graph Pad Prism by a four parameter curve fit.

Chain of HDAC2 (Q92769 whole entry): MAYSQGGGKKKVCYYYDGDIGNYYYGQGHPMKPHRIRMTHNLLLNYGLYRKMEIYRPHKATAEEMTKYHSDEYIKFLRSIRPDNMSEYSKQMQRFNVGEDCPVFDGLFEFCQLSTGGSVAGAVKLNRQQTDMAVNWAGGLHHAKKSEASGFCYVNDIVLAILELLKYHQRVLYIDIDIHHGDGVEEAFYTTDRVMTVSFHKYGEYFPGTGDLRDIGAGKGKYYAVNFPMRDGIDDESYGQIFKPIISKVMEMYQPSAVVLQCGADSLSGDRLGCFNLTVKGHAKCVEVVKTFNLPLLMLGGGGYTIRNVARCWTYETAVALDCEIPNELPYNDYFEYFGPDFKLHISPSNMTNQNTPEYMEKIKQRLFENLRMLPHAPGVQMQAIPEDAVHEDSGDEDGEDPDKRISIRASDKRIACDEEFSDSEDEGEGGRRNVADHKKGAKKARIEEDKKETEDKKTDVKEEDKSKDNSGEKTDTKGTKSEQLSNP

Row | IC50 | SMILES
1 | 10 to 500 nM | CN1CCN(c2ccc(C(=O)Nc3cc(-c4ccco4)ccc3N)nc2)CC1 [Compound 082]
2 | 10 to 500 nM | CN1CCN(c2ccc(C(=O)Nc3cc(-c4ccoc4)ccc3N)nc2)CC1 [Compound 083]
3 | > 500 nM | Nc1ccc(-c2cc(F)cc(F)c2)cc1NC(=O)c1ccc(N2CCNCC2)cn1 [Compound 084]
4 | 10 to 500 nM | Nc1ccc(-c2ccccc2)cc1NC(=O)c1cnc(N2CCNCC2)cn1 [Compound 085]
5 | < 10 nM | CN1CCN(c2cnc(C(=O)Nc3cc(-c4cccs4)ccc3N)cn2)CC1 [Compound 086]
6 | 10 to 500 nM | Nc1ccc(-c2ccco2)cc1NC(=O)c1cnc(N2CCNCC2)cn1 [Compound 087]
7 | 10 to 500 nM | Nc1ccc(-c2ccoc2)cc1NC(=O)c1cnc(N2CCNCC2)cn1 [Compound 088]
8 | 10 to 500 nM | Nc1ccc(-c2ccncc2)cc1NC(=O)c1cnc(N2CCNCC2)cn1 [Compound 089]
9 | 10 to 500 nM | Nc1ccc(-c2ccc(F)cc2)cc1NC(=O)c1cnc(N2CCNCC2)cn1 [Compound 090]

Biological target: HDAC1 (Homo sapiens (Human), UniProt Q13547)
Sequence (Q13547 whole entry): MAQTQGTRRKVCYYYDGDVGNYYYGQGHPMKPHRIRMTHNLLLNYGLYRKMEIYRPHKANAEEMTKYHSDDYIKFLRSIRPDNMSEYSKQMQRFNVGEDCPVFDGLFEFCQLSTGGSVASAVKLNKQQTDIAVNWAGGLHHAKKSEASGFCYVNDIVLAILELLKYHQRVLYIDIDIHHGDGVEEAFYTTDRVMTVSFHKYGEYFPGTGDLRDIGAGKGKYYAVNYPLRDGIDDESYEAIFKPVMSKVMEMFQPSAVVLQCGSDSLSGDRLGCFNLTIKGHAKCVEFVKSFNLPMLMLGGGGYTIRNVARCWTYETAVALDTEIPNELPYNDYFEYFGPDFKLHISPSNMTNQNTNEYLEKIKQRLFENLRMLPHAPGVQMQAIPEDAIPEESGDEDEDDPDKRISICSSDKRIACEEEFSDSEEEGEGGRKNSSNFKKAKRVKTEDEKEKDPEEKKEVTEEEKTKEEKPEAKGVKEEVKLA
Experiment: HDAC enzyme assay HDAC1
Format: biochemical
Details: not given

Row | IC50 | SMILES
10 | < 10 nM | CN1CCN(c2ccc(C(=O)Nc3cc(-c4ccco4)ccc3N)nc2)CC1 [Compound 082]
11 | < 10 nM | CN1CCN(c2ccc(C(=O)Nc3cc(-c4ccoc4)ccc3N)nc2)CC1 [Compound 083]
12 | > 500 nM | Nc1ccc(-c2cc(F)cc(F)c2)cc1NC(=O)c1ccc(N2CCNCC2)cn1 [Compound 084]
13 | < 10 nM | Nc1ccc(-c2ccccc2)cc1NC(=O)c1cnc(N2CCNCC2)cn1 [Compound 085]
14 | < 10 nM | CN1CCN(c2cnc(C(=O)Nc3cc(-c4cccs4)ccc3N)cn2)CC1 [Compound 086]
15 | < 10 nM | Nc1ccc(-c2ccco2)cc1NC(=O)c1cnc(N2CCNCC2)cn1 [Compound 087]
16 | < 10 nM | Nc1ccc(-c2ccoc2)cc1NC(=O)c1cnc(N2CCNCC2)cn1 [Compound 088]
17 | 10 to 500 nM | Nc1ccc(-c2ccncc2)cc1NC(=O)c1cnc(N2CCNCC2)cn1 [Compound 089]
18 | < 10 nM | Nc1ccc(-c2ccc(F)cc2)cc1NC(=O)c1cnc(N2CCNCC2)cn1 [Compound 090]

Biological target: hERG (Homo sapiens (Human), UniProt Q12809)
Sequence (Q12809 whole entry): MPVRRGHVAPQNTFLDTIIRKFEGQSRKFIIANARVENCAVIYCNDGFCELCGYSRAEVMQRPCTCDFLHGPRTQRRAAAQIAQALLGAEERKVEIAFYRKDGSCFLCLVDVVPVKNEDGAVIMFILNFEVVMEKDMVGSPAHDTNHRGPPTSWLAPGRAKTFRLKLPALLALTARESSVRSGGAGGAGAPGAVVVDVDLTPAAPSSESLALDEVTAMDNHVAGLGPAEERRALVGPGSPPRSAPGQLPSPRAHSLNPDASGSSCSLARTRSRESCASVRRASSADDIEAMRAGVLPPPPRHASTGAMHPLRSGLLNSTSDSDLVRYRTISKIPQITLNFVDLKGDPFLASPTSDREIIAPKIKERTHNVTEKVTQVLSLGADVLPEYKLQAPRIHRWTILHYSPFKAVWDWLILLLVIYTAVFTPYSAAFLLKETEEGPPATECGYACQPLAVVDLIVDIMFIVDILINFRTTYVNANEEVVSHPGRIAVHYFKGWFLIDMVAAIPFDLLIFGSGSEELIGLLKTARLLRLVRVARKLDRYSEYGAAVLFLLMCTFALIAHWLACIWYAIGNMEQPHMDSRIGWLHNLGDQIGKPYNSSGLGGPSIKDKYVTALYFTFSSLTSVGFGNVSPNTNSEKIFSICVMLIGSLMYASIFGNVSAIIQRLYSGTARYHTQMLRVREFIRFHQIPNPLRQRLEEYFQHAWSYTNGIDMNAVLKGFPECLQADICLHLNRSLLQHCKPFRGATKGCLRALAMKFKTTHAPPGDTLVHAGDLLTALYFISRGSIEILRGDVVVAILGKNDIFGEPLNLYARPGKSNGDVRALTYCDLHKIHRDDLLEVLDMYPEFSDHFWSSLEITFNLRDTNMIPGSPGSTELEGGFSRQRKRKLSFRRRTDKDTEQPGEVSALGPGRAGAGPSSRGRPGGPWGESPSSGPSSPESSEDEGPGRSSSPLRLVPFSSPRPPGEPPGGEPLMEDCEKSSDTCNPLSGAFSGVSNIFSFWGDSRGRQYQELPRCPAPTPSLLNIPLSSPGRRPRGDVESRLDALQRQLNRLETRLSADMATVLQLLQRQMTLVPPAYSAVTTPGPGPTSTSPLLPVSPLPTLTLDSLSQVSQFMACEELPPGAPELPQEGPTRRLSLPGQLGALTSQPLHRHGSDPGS
Experiment: hERG inhibition, whole-cell patch clamp
Format: cell-based
Details: HEK293 cells stably transfected with hERG, 34 °C, tail current
Method: For hERG inhibition assays, the cells used were HEK293 cells stably transfected with hERG (cell line obtained from Cytocentrics Inc. 3463 Magic Drive San Antonio, Tex. 78229). Composition of External Solution: NaCl, 137 mM; KCl, 4 mM; MgCl2, 1.0 mM; CaCl2, 1.8 mM; HEPES 10 mM; Dextrose 11 mM; Adjusted to a pH of 7.4 with NaOH. Composition of Internal Solution: KCl, 130.0 mM; MgCl2, 1.0 mM; HEPES, 5.0 mM; EGTA, 5.0 mM; NaCl 7.0 mM. Adjusted to a pH of 7.2 using KOH. Test Concentrations: 0.1, 1, 10, 100 μM. Vehicle: DMSO. Experiments were performed at 34+/−1° C. Current was recorded using the whole-cell patch clamp technique on the Cytopatch automated platform. hERG current was elicited with the following voltage protocol: hERG current amplitude was measured as the peak current at −50 mV (tail current). […] Each cell served as its own control. Data are presented as the IC50 calculated by non-linear regression analysis.

Row | SMILES | IC50
19 | Nc1ccccc1NC(=O)c1ccc2nc(N3CCNCC3)ccc2c1 [Compound 001] | > 30000 nM
20 | Nc1ccc(-c2ccccc2)cc1NC(=O)c1ccc(N2CCNCC2)nc1 [Compound 006] | 5100 nM
21 | Nc1ccc(-c2cccs2)cc1NC(=O)c1ccc(N2CCNCC2)nc1 [Compound 007] | 8600 nM
22 | Nc1ccccc1NC(=O)c1cc2ccc(N3CCNCC3)cc2cn1 [Compound 021] | 4200 nM
23 | Nc1ccc(-c2ccncc2)cc1NC(=O)c1cnc2cc(N3CCNCC3)ccc2c1 [Compound 026] | > 100000 nM
24 | CN1CCN(c2ccc3cc(C(=O)Nc4cc(-c5ccco5)ccc4N)ncc3c2)CC1 [Compound 029] | 5200 nM

System: CYP1A2, CYP2C9, CYP2C19, CYP3A4, CYP2D6
Experiment: Cyp inhibition in human liver microsomes (all isozymes)
Format: in vitro ADME
Details: not given
Method: For Cyp inhibition, human liver microsomes from BD Gentest were incubated with Compound 028 or Compound 032 (10, 3.33, 1.11, 0.37, 0.12, 0.04, 0.01 μM) and substrate (CYP1A2: Phenacetin at 30 μM; CYP2C9: Diclofenac at 10 μM; CYP2C19: S-Mephenytoin at 35 μM; CYP3A4: Midazolam at 5 μM and Testosterone at 80 μM; CYP2D6: Bufuralol at 10 μM) for the following incubation times: CYP1A2, 2C9, 2D6: 10 minutes, 37° C.; CYP2C19: 45 minutes, 37° C.; CYP3A4: 5 minutes, 37° C. Substrate conversion was measured by liquid chromatography/mass spectrometry/mass spectrometry (LC/MS/MS). Inhibition was calculated by curve fitting in Graph Pad Prism.

Row | IC50 | SMILES
25 | > 10000 nM | Nc1ccc(-c2ccccc2)cc1NC(=O)c1ccc(N2CCNCC2)nc1 [Compound 006]
26 | > 10000 nM | Nc1ccc(-c2cccs2)cc1NC(=O)c1ccc(N2CCNCC2)nc1 [Compound 007]
27 | > 10000 nM | Nc1ccc(-c2ccoc2)cc1NC(=O)c1cnc2cc(N3CCNCC3)ccc2c1 [Compound 025]
28 | > 10000 nM | CN1CCN(c2ncc(C(=O)Nc3cc(-c4cccs4)ccc3N)s2)CC1 [Compound 030]

System: not listed separately
Experiment: Rat pharmacokinetics, cassette dosing (IV and PO)
Format: in vivo
Details: male SD rats, IV 1 mg/kg, plasma
Method: Male SD rats were fasted overnight. Compounds of the invention were dissolved in dimethyl acetamide at 10 times the final concentration, then Solutol HS 15 (BASF) was added to a final concentration of 10%. Finally 80% saline was added and vortexed to achieve a clear solution. For the IV dosing three animals were injected via the foot dorsal vein with 1 mg/kg compound. For the PO dosing 5 mg/kg of compound was delivered by oral gavage. Blood was collected via the tail vein into K2EDTA tubes at 5 minutes, 15 minutes, 30 minutes, 1 hour, 2 hours, 4 hours, 8 hours and 24 hours after dosing. The blood was centrifuged at 2000 g for 5 minutes at 4° C. to obtain plasma. The plasma was extracted with acetonitrile and the level of compound was analyzed by LC/MS/MS. The level of compound in plasma was calculated from a standard curve in rat plasma. The IV clearance (L/h/kg) and area under the curve (h*ng/mL) were calculated using WinNonLin software. The dose adjusted area under the curve for the IV and oral dosing were used to calculate the oral bioavailability.
Pharmacokinetic properties were assessed in a rat cassette dosing experiment. The IV clearance (IV Clr.) is in units of L/hr/kg. The oral maximum plasma concentration (PO Cmax) is in units of ng/ml. The oral plasma half-life (PO T½) is in units of hours. The oral area under the curve (PO AUC) is in units of hours*ng/ml. The fraction absorbed by the oral route (F %) is a percentage of the oral area under the curve to the IV area under the curve, dose adjusted.

Row | IV Clr. | SMILES
29 | 8 mL/min/kg | CN1CCN(c2ncc(C(=O)Nc3cc(-c4cccs4)ccc3N)s2)CC1 [Compound 030]

Same assay, conditions: male SD rats, PO 5 mg/kg, plasma

Row | PO AUC | PO Cmax | PO T½ | SMILES
30 | 15260 ng·h/mL | 944 ng/mL | 12.8 h | CN1CCN(c2ncc(C(=O)Nc3cc(-c4cccs4)ccc3N)s2)CC1 [Compound 030]

Same assay, conditions: male SD rats, oral AUC to IV AUC, dose adjusted

Row | F % | SMILES
31 | 170% | CN1CCN(c2ncc(C(=O)Nc3cc(-c4cccs4)ccc3N)s2)CC1 [Compound 030]

Same assay, conditions: rat, plasma, 5 mg/kg; male SD rats, oral AUC to IV AUC, dose adjusted

Row | bioavailability | SMILES
32 | 89.8% | Nc1ccccc1NC(=O)c1cc2ccc(N3CCNCC3)cc2cn1 [Compound 021]

Same assay, conditions: rat; male SD rats, IV 1 mg/kg, plasma

Row | IV clearance | SMILES
33 | 94.3 mL/min/kg | Nc1ccccc1NC(=O)c1cc2ccc(N3CCNCC3)cc2cn1 [Compound 021]

Same assay, conditions: rat; male SD rats, PO 5 mg/kg, plasma

Row | AUC | Cmax | SMILES
34 | 763 ng·h/mL | 68 ng/mL | Nc1ccccc1NC(=O)c1cc2ccc(N3CCNCC3)cc2cn1 [Compound 021]

Same assay, conditions: rat; male SD rats, PO 5 mg/kg, plasma; read-out: PO T½ (converted)

Row | half-life | SMILES
35 | 3.2 h | Nc1ccccc1NC(=O)c1cc2ccc(N3CCNCC3)cc2cn1 [Compound 021]

Biological target: HDAC3 (Homo sapiens (Human), UniProt O15379)
Sequence (O15379 whole entry): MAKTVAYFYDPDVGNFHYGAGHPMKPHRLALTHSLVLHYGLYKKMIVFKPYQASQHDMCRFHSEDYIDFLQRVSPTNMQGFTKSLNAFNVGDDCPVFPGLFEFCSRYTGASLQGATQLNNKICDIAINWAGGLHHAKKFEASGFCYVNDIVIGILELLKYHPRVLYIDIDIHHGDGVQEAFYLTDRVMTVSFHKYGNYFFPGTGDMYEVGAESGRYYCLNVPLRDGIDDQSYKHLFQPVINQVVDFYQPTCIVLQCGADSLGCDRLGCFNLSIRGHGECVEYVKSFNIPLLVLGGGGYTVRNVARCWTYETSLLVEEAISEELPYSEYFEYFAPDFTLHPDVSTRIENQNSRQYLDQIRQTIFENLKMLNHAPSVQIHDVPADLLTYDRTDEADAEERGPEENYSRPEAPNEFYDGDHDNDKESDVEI
Sequence (Q9Y618 395-489 partner): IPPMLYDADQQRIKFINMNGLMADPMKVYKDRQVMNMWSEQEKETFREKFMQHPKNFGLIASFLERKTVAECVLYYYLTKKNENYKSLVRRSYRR
Experiment: HDAC enzyme assay HDAC3
Format: biochemical
Details: not given
Method: Compounds for testing were diluted in DMSO to 50 fold the final concentration and a ten-point three-fold dilution series was made. The compounds were diluted in assay buffer (50 mM HEPES, pH 7.4, 100 mM KCl, 0.001% Tween-20, 0.05% BSA, 20 μM TCEP) to 6-fold their final concentration. The HDAC enzymes (purchased from BPS Biosciences) were diluted to 1.5-fold their final concentration in assay buffer. The tripeptide substrate and trypsin at 0.05 μM final concentration were diluted in assay buffer at 6-fold their final concentration. The final enzyme concentrations used in these assays were 3.3 ng/ml (HDAC1), 0.2 ng/ml (HDAC2) and 0.08 ng/ml (HDAC3). The final substrate concentrations used were 16 μM (HDAC1), 10 μM (HDAC2) and 17 μM (HDAC3). Five μl of compounds and 20 μl of enzyme were added to wells of a black, opaque 384 well plate in duplicate. Enzyme and compound were incubated together at room temperature for 10 minutes. Five μl of substrate was added to each well, the plate was shaken for 60 seconds and placed into a Victor 2 microtiter plate reader. The development of fluorescence was monitored for 60 min and the linear rate of the reaction was calculated. The IC50 was determined using Graph Pad Prism by a four parameter curve fit. In Table 4 below, letter designations are defined as follows: […]

Row | IC50 | SMILES
36 | 10 to 500 nM | CN1CCN(c2ccc(C(=O)Nc3cc(-c4ccco4)ccc3N)nc2)CC1 [Compound 082]
37 | 10 to 500 nM | CN1CCN(c2ccc(C(=O)Nc3cc(-c4ccoc4)ccc3N)nc2)CC1 [Compound 083]
38 | > 500 nM | Nc1ccc(-c2cc(F)cc(F)c2)cc1NC(=O)c1ccc(N2CCNCC2)cn1 [Compound 084]
39 | 10 to 500 nM | Nc1ccc(-c2ccccc2)cc1NC(=O)c1cnc(N2CCNCC2)cn1 [Compound 085]
40 | 10 to 500 nM | CN1CCN(c2cnc(C(=O)Nc3cc(-c4cccs4)ccc3N)cn2)CC1 [Compound 086]
41 | 10 to 500 nM | Nc1ccc(-c2ccco2)cc1NC(=O)c1cnc(N2CCNCC2)cn1 [Compound 087]
42 | 10 to 500 nM | Nc1ccc(-c2ccoc2)cc1NC(=O)c1cnc(N2CCNCC2)cn1 [Compound 088]
43 | 10 to 500 nM | Nc1ccc(-c2ccncc2)cc1NC(=O)c1cnc(N2CCNCC2)cn1 [Compound 089]
44 | 10 to 500 nM | Nc1ccc(-c2ccc(F)cc2)cc1NC(=O)c1cnc(N2CCNCC2)cn1 [Compound 090]
